We go through 89 compounds from a melting point compilation (Tetko et al.; mined from patent text by program, amines drawn as free bases though some values may be those of a salt).

SMILES strings stand for the structures.

The compound `CC1=Cc2cccc(S(N)(=O)=O)c2OS1(=O)=O` returned a melting point of 204 to 205 °C.

`C=Cc1ccc(CN2CCNCCNCC2)cc1`: the melting point fell in the range of 56 to 59 °C.

`CSC1NC(=O)N(c2ccccc2)C(=O)N1N=C(C)C` (centres undefined) showed a melting point of 206 to 207 °C.

`Cn1ncc(C(=O)O)c1C(=O)Nc1ccn2nc(-c3cccnc3)nc2c1`: the melting point is > 250 °C.

Consider `CCCCCCCCCCCCCCCCCCOc1cc(OCCCCCCc2cccc(O)c2O)cc(C(=O)OC)c1`, for which the melting point fell in the range of 82 to 84 °C.

`CC(=O)NC(C)C(C)n1ncn(-c2ccc(N3CCN(c4ccc(O)cc4)CC3)cc2)c1=O` (centres undefined) came in with a melting point of 264 °C.

On to `Cc1cc(C)n(-c2ccc(C(N)=O)nn2)n1`, for which the melting point was in the range of 256 to 257 °C.

`CC(C)(C)c1ccc(C(=O)Nc2cn3c4c(ccc3n2)OCC4)cc1` gave a melting point of 266 to 268 °C.

`C=CCOC(=O)c1cccc(S(=O)(=O)n2c(=O)[nH]c(=O)c3ccc(Cl)cc32)c1` registered a melting point of 187 to 189 °C.

As for `CC(C)(C)OC(=O)N1CCc2cc3nccnc3cc2CC1`, the melting point was 107 to 109 °C.

Take `Cc1cscc1NC(=S)Nc1c(N)c(F)c(F)c(F)c1F`: the melting point fell in the range of 286 to 290 °C.

Compound `NCCc1c[nH]c2cc(Cl)c(NC(N)=O)cc12` registered a melting point of 212 to 213 °C.

In the case of `CCOc1ccc(-c2nc(CCC(O)c3ccccc3OC)cs2)cc1OCC` (centres undefined), the melting point was in the range of 78.2 to 79 °C.

`Oc1cccc(C(O)CCCCCOc2cccc(Cl)c2)c1` (centres undefined) displayed a melting point of 125 to 127 °C.

In turn, `Nc1n[nH]c2ccc(Br)cc12` yielded a melting point of 165 to 175 °C.

Take `O=C(NC(Cc1ccccc1)c1ccccn1)c1ccccc1` (centres undefined): the melting point fell in the range of 153 to 154 °C.

As for `COc1cc2c(c(OC)c1)OC(C(F)(F)F)C(C(=O)O)=C2` (centres undefined), the melting point is 215 to 217 °C.

In turn, `CC(C)(C)C(=O)C=Cc1cnc2ccccc2c1` registered a melting point of 146 to 148 °C.

Compound `O=P(O)(O)Cc1ccccc1C(F)(F)F` displayed a melting point of 190 to 192 °C.

The compound `COc1cc([N+](=O)[O-])c(N)cc1C(N)=O` had a melting point of 250 to 257 °C.

`Cc1ccnc(NC(c2ccc([N+](=O)[O-])cc2)c2ccc3cccnc3c2O)n1` (centres undefined) gave a melting point of 136 to 145 °C.

The compound `COc1cc(OC)nc(Oc2ccccc2C(=O)OC(=O)c2ccccc2Oc2nc(OC)cc(OC)n2)n1` gave a melting point of 120 to 122 °C.

The compound `c1ccc(CCN2CCN(c3n[nH]c4c3CCc3sccc3-4)CC2)cc1` registered a melting point of 145 to 147 °C.

Turning to `Cc1ccc(-n2ccc3c(OCC(C)(C)C)nn(C)c(=O)c32)c(C)c1`, the melting point lay in the range of 146 to 147 °C.

Compound `CCN(CC)CCOc1nc2ccccc2n(-c2ccc(Cl)cc2)c1=O` gave a melting point of 165 to 167 °C.

With `Cn1cc(OS(C)(=O)=O)c(=O)c2cc(F)ccc21`, the melting point fell in the range of 188 to 189 °C.

Compound `CCCCCCCCCCCCCCCCNC(=O)c1cc(O)cc(O)c1` yielded a melting point of 154 to 156 °C.

The compound `CC(C)c1cc(C#N)cc(C(=O)Nc2ccc(F)cn2)n1` came in with a melting point of 194 °C.

`CCCCCN(C(=O)Cl)c1ccc2c(c1)C(C)(C)CCC2(C)C` displayed a melting point of 79 to 81 °C.

`CCCNC(=O)c1ccccc1C(c1ccc(O)cc1)c1ccc(O)cc1` showed a melting point of 202 °C.

Consider `COC(=O)C1CCC2C3CC(=O)C4(O)CC(O)CCC4(C)C3CCC12C` (centres undefined), for which the melting point was 258 to 260 °C.

Take `Fc1cccc(F)c1-c1ncc(-c2ccc(-c3ccc(OC(F)(F)F)cc3)cc2)cn1`: the melting point lay within 215 to 216 °C.

As to `O=C1N(Cc2ccccn2)c2cccc(-c3cccnc3)c2C12COc1cc3c(cc12)CCO3` (centres undefined), the melting point is > 200 °C.

Regarding `Cc1nc(CC#N)c2c(OCc3ccccc3)cccn12`, the melting point was 118 to 119 °C.

Take `N#Cc1ccc(-c2cn(-c3ccc(I)cc3)c(SCCO)n2)cc1`: the melting point is 148 to 172 °C.

In turn, `N#Cc1ccc(N2CCCCC2)c2ccsc12` displayed a melting point of 99 to 100 °C.

`N#CCN1C(=O)SC(=Cc2ccc(OCCc3ccccc3)cc2)C1=O` returned a melting point of 155 to 157 °C.

For `CCOC(=O)C1=C(C)NC(C)=C2C(=O)Nc3ccccc3C21` (centres undefined), the melting point was 236 to 238 °C.

In the case of `CC(C)n1nc(-c2sc(NC(=O)CN(C)CCc3ccccn3)nc2-c2ccccc2)ccc1=O`, the melting point is 94 to 96 °C.

Turning to `COc1ccc(CCCC2OC(=O)NC2=O)cc1OCc1nc(-c2ccccc2)oc1C` (centres undefined), the melting point fell in the range of 185 to 187 °C.

`CN(C)CCNc1cc(CNc2ccccc2C(=O)Nc2cccc(C(F)(F)F)c2)ccn1` registered a melting point of 100 °C.

With `CNCC1Cc2cc(-c3ccccc3)cc(-c3ccc(OC)cc3)c2O1` (centres undefined), the melting point is > 250 °C.

Regarding `COC(=O)CC(NC(=O)C1CCCCC1)C(C)=O` (centres undefined), the melting point was 87 to 88 °C.

`O=c1cc(OCc2ccccc2)c2ccc(O)cc2o1` gave a melting point of 234 °C.

Regarding `O=C1c2ccccc2CN1C1CCN(Cc2ccccc2)CC1`, the melting point lay in the range of 116 to 118 °C.

Regarding `O=C1NC(=O)C(Cc2cc(O)c(O)c([N+](=O)[O-])c2)C(=O)N1`, the melting point was 263 to 266 °C.

As to `CCCCC1(C2CCCC2)Cc2cc(O)c(Cl)c(Cl)c2C1=O` (centres undefined), the melting point was found to be 160 °C.

As to `Cc1c(C)c2c(c(C)c1Nc1ccccc1)CC(C)(C)O2`, the melting point is 148 to 150 °C.

The compound `C=CCOC(=O)c1c(C)nc2c(cnn2CCC(=C)C)c1N` showed a melting point of 68 to 69 °C.

In turn, `CC(=O)NNC1=Nc2ccc(Cl)cc2C(c2c(F)cccc2F)=NC1` yielded a melting point of 274 to 277 °C.

The compound `CCCc1c(OCCCOc2ccc3c(c2)CCC(CC(=O)O)C3=O)ccc(C(C)=O)c1O` (centres undefined) yielded a melting point of 123 to 125 °C.

`CC12CC(=O)C3C(CCC4CC(O)CCC43C)C1CCC2C#N` (centres undefined) yielded a melting point of 190 to 192 °C.

`CCOC(=O)N1Cc2cccc3c2c(cn3C)C1` showed a melting point of 76 to 78 °C.

The compound `c1ccc(CCC2CCN(Cc3nc4ccccc4[nH]3)CC2)cc1` displayed a melting point of 170 °C.

`Nc1nnc(SCC(CS(=O)(=O)c2ccc(-c3ccc(Cl)cc3)cc2)C(=O)O)s1` (centres undefined): the melting point lay in the range of 184 to 186 °C.

`COc1ccc(C(=CN(C)C)C(C)=O)cc1` yielded a melting point of 51 °C.

Compound `COc1cc(/C=[N+](\[O-])C(C)C)ccc1O` displayed a melting point of 178 to 180 °C.

With `N#Cc1ccc2c(c1)C=CCCO2`, the melting point fell in the range of 69 to 71 °C.

On to `O=C(c1nn(-c2ccc(F)cc2F)c2c1C1CCC2C1)N1CCCc2ccccc21` (centres undefined), for which the melting point fell in the range of 103 to 107 °C.

In turn, `CCCCCCCCC(SCCCCCC)C(=O)Nc1c([N+](=O)[O-])ccc2ncccc12` (centres undefined) had a melting point of 89.9 °C.

As to `Cn1c(Cl)cc(=O)n(C2CCCCC2)c1=O`, the melting point fell in the range of 132 to 133 °C.

The compound `COc1cccc2c1CCC2C(=O)O` (centres undefined) came in with a melting point of 117 to 118 °C.

`CC(C)C(NC(=O)OC(C)(C)C)C(=O)NC(C(=O)OCC1OC(n2cc(C=CBr)c(=O)[nH]c2=O)CC1N=[N+]=[N-])C(C)C` (centres undefined) yielded a melting point of 95 to 97 °C.

Compound `CCN1CCC(C(C(N)=O)(c2ccccc2)c2ccccc2)C1` (centres undefined) gave a melting point of 141 to 142 °C.

For `O=C(N[C@@H](Cc1c[nH]c2ccccc12)C(=O)O)c1cccc(Cl)c1`, the melting point lay within 160 to 161 °C.

`O=C(N[C@@H]1CCCC[C@H]1O)c1cnc(OCC(F)(F)F)c(-c2ccc(F)cc2)n1` registered a melting point of 133 to 134 °C.

For `CCCCOC(=O)c1nc(Cl)c2cc(OC(C)C)ccc2c1O`, the melting point fell in the range of 60 to 62 °C.

`O=C(CN1C(=O)[C@H](Cl)[C@H]1[S@@](=O)Cc1ccccc1)NCCCCCCc1ccc(F)cc1`: the melting point is 87 to 89 °C.

`CC(=O)NC[C@H]1CN(c2ccc(C3CCN(CCF)CC3)c(F)c2)C(=O)O1` had a melting point of 155 to 157 °C.

On to `O=C1N(C(c2ccccc2)c2ccccc2)c2ccccc2C12COc1cc3c(cc12)CCCO3` (centres undefined), for which the melting point lay in the range of 208 to 211 °C.

Turning to `CCc1nc2c(c(C)c(C)n3nnnc23)n1CCOCCN`, the melting point fell in the range of 181 to 183 °C.

In turn, `NC(=O)c1c(Cl)c(-c2ccccc2)n2c1CN(S(=O)(=O)c1ccc(F)cc1)CC2` had a melting point of 177 to 178 °C.

In turn, `Cc1ccc(S(=O)(=O)NCCCC(NS(=O)(=O)c2ccc(-c3ccc(Cl)cc3)cc2)C(=O)O)cc1` (centres undefined) came in with a melting point of 62 °C.

For the compound `CCn1nc(C)c2c1C(=O)NCC(c1cccc(O)c1)=N2`, the melting point stood at 204 °C.

In turn, `CCCCc1nc2c(C)cnc(C(=O)OC)c2n1Cc1ccc(-c2ccccc2-c2nnn[nH]2)cc1` registered a melting point of 149 to 151 °C.

Consider `Cc1ncc2n1-c1ccc(C(C)O)cc1C(c1ccccc1)=NC2` (centres undefined), for which the melting point is 223 to 225 °C.

`CCN(CC)CCCNC(=O)/C(=C/C=C/c1cc2ccccc2o1)OC` registered a melting point of 79 °C.

In turn, `COC(=O)CC/C(C)=C/Cc1c(N=C=O)c2c(c(C)c1OC)COC2=O` showed a melting point of 95 to 101 °C.

On to `CCCCCCCCCCCC(=O)Oc1ccc(-c2nc(-c3ccc(N(C)C)cc3)c(C)[nH]2)cc1OC`, for which the melting point was 110 to 112 °C.

In turn, `COc1ccc(S(C)(=O)=O)cc1C(=O)NCC1CCCN1C12CCC(CC1)C2` (centres undefined) registered a melting point of 125 °C.

For the compound `CC1(C)Cc2ccccc2C1c1cncnc1S` (centres undefined), the melting point lay within 184 to 186 °C.

Turning to `CNC(=O)c1ccc(F)c2c1CC(N(CCc1c[nH]c3ccc(F)cc13)CC1CC1)CO2` (centres undefined), the melting point was found to be 138 °C.

Take `CN(c1ccc(Cl)cc1)S(=O)(=O)c1cccc(NC(=O)c2ccc(Br)cc2)c1`: the melting point lay within 187 to 189 °C.

Consider `CCCCN(CCCC)C(=O)On1c(-c2ccccc2)nc2c3ccc4ccccc4c3ccc21`, for which the melting point was 120 °C.

On to `NC[C@@H]1CCc2cc(S(=O)(=O)Nc3ccc(-n4ccn(CCCC5CCCCC5)c4=O)cc3)ccc2O1`, for which the melting point lay within 108 to 110 °C.

Regarding `COc1ccc2cc([C@H](C)C(=O)OC[C@@]3(C)COC(C)(C)O3)ccc2c1`, the melting point is 65 to 66 °C.

`Nc1ccc(S(=O)(=O)c2cc(Br)nc(N3CCNCC3)c2)cc1` showed a melting point of 173 to 175 °C.

On to `O=C1NCc2c1cc1ccc3c(c1c2-c1ccc(F)cc1)OCO3`, for which the melting point lay in the range of 294 to 297 °C.

For `CCCc1c(OCCCSc2cccc(CC(=O)O)c2F)ccc(C(C)=O)c1O`, the melting point lay in the range of 63 to 65 °C.

In general, melting point refers to the temperature of the solid-liquid transition.
